Results published in paper PMC8158265, “Inhibition of catechol-O-methyltransferase by natural pentacyclic triterpenes: structure–activity relationships and kinetic mechanism” (Journal of Enzyme Inhibition and Medicinal Chemistry, 2021).
Read-outs that look alike come from different tables or passages of the source.

Legend:
[1] = target: T1, recombinant human S-COMT (Homo sapiens, UniProt P21964); assay: COMT activity inhibition assay (enzymatic activity based fluorescence assay, 3-BTD substrate); assay type: biochemical
T1 construct: made in house
T1 sequence (P21964 1-221 isoform P21964-2): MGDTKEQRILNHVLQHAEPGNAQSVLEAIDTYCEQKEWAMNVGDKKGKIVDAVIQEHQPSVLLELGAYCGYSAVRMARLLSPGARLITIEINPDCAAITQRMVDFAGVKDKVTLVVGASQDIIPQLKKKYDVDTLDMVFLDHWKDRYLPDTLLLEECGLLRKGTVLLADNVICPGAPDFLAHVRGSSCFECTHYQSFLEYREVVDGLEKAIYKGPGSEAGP

[2] = system: LO-2 cells; assay: Cytotoxicity assay (CCK8); assay type: cell-based, human; conditions: for IC50: Homo sapiens; for cell survival: up to 100 μM
Experimental: The normal human liver-derived cell line LO-2 were grown in DMEM culture medium supplemented with 10% FBS, penicillin (100 U/mL) and streptomycin ([…]). After culturing to 80% confluence, cells were digested and exactly 100 µL of cell suspension with a cell concentration of 10^4 cells/well was seeded in 96-well plates and incubated in a 5% CO2 humidified atmosphere at 37 °C for 12 h. Then the cells were incubated with 100 μL tested compounds of varying concentrations from 0.25 to 100 μM prepared in FBS-free culture medium for 24 h. Subsequently, CCK-8 was diluted 1:10 with DMEM culture and them was added into the adherent cells and incubated in 37 °C for 2 h. The absorbance at 450 nm was measured by using the multi-mode microplate reader. Cell viability can be calculated by A/A0 × 100% (A and A0 are the absorbance of experimental group and control group, respectively).

[3] = system: mitochondrial membrane potential of LO-2 cells; assay: Mitochondrial membrane potential assay (JC-10, high-content imaging); assay type: cell-based, human; conditions: 24 h
Experimental: The cells were cultured as described in the Section 2.3. […] To assess the mitochondria membrane potential, JC-10 (5 μg/mL) was incubated with the cells for 30 min, and Hochest (10 μg/mL) was used to stain nuclei. After removal of culture medium and rinsing three times with PBS, cell imaging and quantitative analysis were performed by high-content imaging analysis (Molecular Devices® ImageXpress Micro 4, the USA).

[4] = target: T1, recombinant human S-COMT; assay: Inhibition kinetics of human S-COMT catalysed O-methylation of 3-BTD; assay type: biochemical; conditions: for Vmax: 200 μM SAM; for Inhibition type: with respect to 3-BTD (catechol site); for α: global fit of mixed inhibition model
[5] = 2.0 μg/mL human S-COMT, 2.0 μM 3-BTD as substrate, 200 μM SAM, mean ± SE, read-out: IC50
[6] = L02, LO-2 cells, 24 h, CCK8, read-out: concentration that led to a 50% decrease of cell viability
[7] = apparent Vmax for 3-BTD with 2.5 μM inhibitor
[8] = apparent Vmax for 3-BTD with 5.0 μM inhibitor
[9] = apparent Vmax for 3-BTD with 7.5 μM inhibitor
[10] = 2.0 μg/mL human S-COMT, 2.0 μM 3-BTD as substrate, 200 μM SAM, mean ± SE

`Oc1cc(O)c2c(c1)O[C@H](c1ccc(O)c(O)c1)[C@H](O)C2` [Epicatechin, reference compound] gave an IC50 [1, 5] of 9.57 ± 0.55 µM.

For `Cc1ccc(C(=O)c2cc(O)c(O)c([N+](=O)[O-])c2)cc1` [Tolcapone, tolcapone, reference compound], the IC50 [2, 6] was 28 to 38 µM and the “reduction in membrane potential” value ([3]; 10 μM) was 50%.

In the case of `CC1(C)CC[C@]2(C(=O)O)CC[C@]3(C)C(=CC[C@@H]4[C@@]5(C)CC[C@H](O)C(C)(C)[C@@H]5CC[C@]43C)[C@@H]2C1` [Compound 1, Oleanic acid], the IC50 [2, 6] is reported as > 100 µM, the cell survival ([2]; LO-2 cells, CCK8) is reported as 95% and the Vmax [4, 7] is reported as 8.45 ± 0.29 nmol/min/mg. The Vmax [4, 8] was 4.56 ± 0.084 nmol/min/mg, the Vmax [4, 9] was 2.20 ± 0.030 nmol/min/mg and the Inhibition type [4] was “Mixed”. For the same molecule, the “effect on MMP” value ([3]; at 50 μM) was “did not display a decrease of MMP”.

Molecule `C=C(C)[C@@H]1CC[C@]2(C(=O)O)CC[C@]3(C)[C@H](CC[C@@H]4[C@@]5(C)CCC(=O)C(C)(C)[C@@H]5CC[C@]43C)[C@@H]12` [Compound 17, Betulonic acid] has an IC50 [1, 5] of 11.1 ± 0.51 µM.

For `CC1(C)CC[C@]2(C(=O)O)CC[C@]3(C)C(=CC[C@@H]4[C@@]5(C)C[C@@H](O)[C@H](O)C(C)(C)[C@@H]5CC[C@]43C)[C@@H]2C1` [Compound 3, Masline acid], the IC50 [1] was 10.6 ± 0.96 µM.

`O=c1c(O)c(-c2ccc(O)c(O)c2)oc2cc(O)cc(O)c12` [Quercetin, reference compound] was tested, and the IC50 [1] was 3.23 ± 0.11 µM.

In the case of `C=C(C)[C@@H]1CC[C@]2(C(=O)O)CC[C@]3(C)[C@H](CC[C@@H]4[C@@]5(C)CC[C@@H](O)C(C)(C)[C@@H]5CC[C@]43C)[C@@H]12` [Compound 15, Epibetulinic acid], the “reduction in COMT-inhibitory potential compared to betulinic acid (11)” value [1] is reported as 50% and the IC50 [1, 5] is reported as 9.38 ± 0.37 µM.

For `CC1(C)[C@@H](O)CC[C@]2(C)[C@H]3C(=O)C=C4[C@@H]5C[C@@](C)(C(=O)O)CC[C@]5(C)CC[C@@]4(C)[C@]3(C)CC[C@@H]12` [Compound 6, Glycyrrhetinic acid], the IC50 [1, 5] was 115 ± 11.6 µM.

`C=C(C)[C@@H]1CC[C@]2(C(=O)O)CC[C@]3(C)[C@H](CC[C@@H]4[C@@]5(C)CC[C@H](O)C(C)(C)[C@@H]5CC[C@]43C)[C@@H]12` [Compound 11, Betulinic acid] was tested, and the IC50 [2, 6] was > 100 µM, the cell survival ([2]; LO-2 cells, CCK8) was 95% and the Vmax [4, 7] was 9.97 ± 0.20 nmol/min/mg. It also gave a Vmax [4, 8] of 8.95 ± 0.22 nmol/min/mg, a Vmax [4, 9] of 6.06 ± 0.24 nmol/min/mg and a α ([4]; with respect to 3-BTD) of 0.39. For the same molecule, the Ki ([4]; global fit, with respect to 3-BTD, saturated SAM, read-out: Ki) was 5.6 ± 0.33 µM, the Inhibition type [4] was “Mixed” and the IC50 [1, 5] was 5.07 ± 0.087 µM.

`CC1(C)CC[C@]2(C(=O)O)CC[C@]3(C)C(=CC[C@@H]4[C@@]5(C)CC[C@H](O)[C@@](C)(CO)[C@@H]5CC[C@]43C)[C@@H]2C1` [Compound 2, Hederagenin] gave an IC50 [1, 5] of 8.37 ± 0.46 µM.

Work on `CC1(C)CC[C@]2(C)CC[C@]3(C)C(=CC[C@@H]4[C@@]5(C)CC[C@@H](O)[C@](C)(C(=O)O)[C@@H]5CC[C@]43C)[C@@H]2C1` [Compound 5, α-Boswellic acid] yielded an IC50 [1, 5] of 29.2 ± 1.65 µM.

Work on `Cc1c(O)c(O)cc2c1CC=C1C2(C)CCC2(C)C3CC(C)(C(=O)O)CCC3(C)CCC12C` (stereo not shown) [Compound 19, Hydrocelastrol] yielded an IC50 [1] of 12.6 ± 0.73 µM.

Work on `C=C(C)[C@@H]1CC[C@]2(C)CC[C@]3(C)[C@H](CC[C@@H]4[C@@]5(C)CC[C@H](O)C(C)(C)[C@@H]5CC[C@]43C)[C@@H]12` [Compound 12, Lupeol] yielded an IC50 [1, 5] of 7.93 ± 0.47 µM.

In the case of `C[C@H]1[C@H](C)CC[C@]2(C)CC[C@]3(C)C(=CC(=O)[C@@H]4[C@@]5(C)CC[C@@H](O)[C@](C)(C(=O)O)[C@@H]5CC[C@]43C)[C@H]12` [Compound 10, 11-Keto-β-Boswellic acid], the IC50 [1, 10] is reported as “N.E”.

With `CC1=C(O)C(=O)C=C2C1=CC=C1[C@@]2(C)CC[C@@]2(C)[C@@H]3C[C@](C)(C(=O)O)CC[C@]3(C)CC[C@]12C` [Compound 18, Celastrol] the IC50 ([2]; L02, 24 h, read-out: concentration that led to a 50% decrease of cell viability, LO-2 cells, 24 h, CCK8) was 2.4 µM, the “fold more potent cytotoxicity than tolcapone” value ([2]; LO-2 cells, CCK8) was 12 fold and the Ki [4] was 3.5 ± 0.51 µM. It also gave a Vmax [4, 7] of 7.91 ± 0.16 nmol/min/mg, a Vmax [4, 8] of 4.39 ± 0.10 nmol/min/mg and a Vmax [4, 9] of 2.54 ± 0.047 nmol/min/mg. For the same molecule, the α ([4]; with respect to 3-BTD) was 0.20, the Inhibition type [4] was “Mixed” and the IC50 [1] was 3.89 ± 0.15 µM.

With `C[C@H]1[C@H](C)CC[C@]2(C(=O)O)CC[C@]3(C)C(=CC[C@@H]4[C@@]5(C)CC[C@H](O)C(C)(C)[C@@H]5CC[C@]43C)[C@H]12` [Compound 7, Ursolic acid] the IC50 [1, 5] was 15.1 ± 1.35 µM and the “fold lower inhibitory potency than oleanolic acid (1)” value ([1]; ratio of IC50 values) was ~3 fold.

Molecule `C[C@H]1[C@H](C)CC[C@]2(C(=O)O)CC[C@]3(C)C(=CC[C@@H]4[C@@]5(C)C[C@@H](O)[C@H](O)[C@@](C)(CO)[C@@H]5CC[C@]43C)[C@H]12` [Compound 8, Asiatic acid] has an IC50 [1] of 43.1 ± 5.92 µM.

`C[C@H]1C(=O)CC[C@@H]2[C@]1(C)CC[C@H]1[C@@]2(C)CC[C@@]2(C)[C@@H]3CC(C)(C)CC[C@]3(C)CC[C@]12C` [Compound 20, Friedelin] was tested, and the IC50 [1, 10] was “N.E”.

`CCN(CC)C(=O)/C(C#N)=C/c1cc(O)c(O)c([N+](=O)[O-])c1` [Entacapone, entacapone, reference compound] was tested, and the IC50 [2, 6] was > 100 µM.

With `C=C(C)[C@@H]1CC[C@]2(C=O)CC[C@]3(C)[C@H](CC[C@@H]4[C@@]5(C)CC[C@H](O)C(C)(C)[C@@H]5CC[C@]43C)[C@@H]12` [Compound 14, Betulinic aldehyde] the IC50 [1, 5] was 10 ± 0.63 µM.

`C=C(C)[C@@H]1CC[C@]2(CO)CC[C@]3(C)[C@H](CC[C@@H]4[C@@]5(C)CC[C@H](O)C(C)(C)[C@@H]5CC[C@]43C)[C@@H]12` [Compound 13, Betulin] showed an IC50 [1] of 8.86 ± 0.46 µM.

With `C=C(C)[C@@H]1CC[C@]2(C(=O)O)CC[C@]3(C)[C@H](CC[C@@H]4[C@@]5(C)CC[C@H](O)[C@@](C)(CO)[C@@H]5CC[C@]43C)[C@@H]12` [Compound 16, 23-Hydroxybetulinic acid] the IC50 [1, 5] was 31.4 ± 2.42 µM.

`C[C@H]1[C@H](C)CC[C@]2(C)CC[C@]3(C)C(=CC[C@@H]4[C@@]5(C)CC[C@@H](O)[C@](C)(C(=O)O)[C@@H]5CC[C@]43C)[C@H]12` [Compound 9, β-Boswellic acid] was tested, and the IC50 [1, 5] was 14.2 ± 0.87 µM.

In the case of `CC1(C)CCC2(C(=O)O)C(O)CC3(C)C(=CCC4C5(C)CC(O)C(O)C(C)(CO)C5CCC43C)C2C1` (stereo not shown) [Compound 4, Polygalacic acid], the IC50 [1, 10] is reported as “N.E”.
